The nature of the data set: xn = mol fraction of the nth substance listed. As to conditions: 298 K, 101.3 kPa.

As to `II` + CCCC[n+]1ccn(C)c1.[I-], the electrical conductivity is, setting by setting: (x2 = 0.2) 5.13 S/m; (x2 = 0.25) 4.31 S/m; (x2 = 0.5) 0.735 S/m.

For the compound `CCCCCC[n+]1ccn(C)c1.[I-]` + II, the electrical conductivity (x1 = 1) came out at 0.0186 S/m.

For `CC[n+]1ccn(C)c1.[I-]` + II, the electrical conductivity is, setting by setting: (x1 = 0.2) 7.17 S/m; (x1 = 0.25) 6.5 S/m; (x1 = 0.333) 5.08 S/m. In addition, the viscosity (x1 = 0.25) turned out to be 18.8 mPa·s.

As to `II` + CCCCCCCCCCCC[n+]1ccn(C)c1.[I-], the electrical conductivity (x2 = 0.25) was determined as 1.39 S/m.

Regarding `CCCC[n+]1ccn(C)c1.[I-]` + II, the electrical conductivity (x1 = 1) turned out to be 0.035 S/m.

Consider `II` + CCCCCC[n+]1ccn(C)c1.[I-], for which the electrical conductivity was found to be 3.89 S/m (x2 = 0.2), 2.93 S/m (x2 = 0.25), 1.96 S/m (x2 = 0.333) and 0.429 S/m (x2 = 0.5).

As to `C=CCn1cc[n+](C)c1.[I-]` + II, the electrical conductivity is, setting by setting: (x1 = 0.2) 4.07 S/m; (x1 = 0.333) 3.82 S/m.

(Values after a compilation of properties of binary mixtures (doi:10.1016/j.molliq.2022.121176).)
